Measured values from patent US8044028B2, “Oligopeptides and their use in cosmetics” (Cognis France S.A.S., priority 2004, dated 2011).
No end group written: not given here. *: point of attachment. Palmitoyl = CCCCCCCCCCCCCCCC(=O)*

Columns and labels:
human keratinocytes = experiment: Effects on the growth of human primary keratinocytes (cellular DNA content, ethidium bromide fluorescence); type: cell-based; details: for DNA after culture for 4-5 days: % based on control (standard medium without additives = 100), average of 3 assays in triplicate; for growth of human keratinocytes (result in words): keratinocytes cultivated from biopsies of adult subjects, activity still detected after 5 days without changing medium; for DNA after culture for 3 days: % based on control = 100
Procedure: The aim of this test was to analyse the revitalizing and regenerating activities of oligpopeptides according to the invention on human keratinocyte cultures in vitro.
Human keratinocytes were obtained by trypsinization of skin biopsies. They were incubated in standard medium for cell cultures with foetal calf serum (FCS) and growth factors (EGF 10 ng/ml). After cultivation for 2 days at 37° C. and a CO2 content of 5%, the medium was replaced by standard medium with varying concentrations of peptides. […] The fluorescence was determined using a fluorimeter (excitation at 538 nm and emission at 590 nm). The foetal calf serum forms a positive control because it comprises many growth factors, such as, for example, IGF (insulin-like growth factor) and PDGF (platelet derived growth factor).
The results are shown in Table 1 and 2 as the average value from 3 assays in triplicate in % based on a control in which the standard medium comprised no additives.

syndecan-1 = experiment: Stimulation of the synthesis of syndecan-1 on human keratinocytes (immunocytochemistry, image analysis); type: cell-based; details: keratinocyte culture, biopsies of adult subjects
Procedure: Monoclonal antibody anti-syndecan-1 and secondary antibody FITC conjugated were obtained from TEBU, Le Perray en Yvelines and BIO-RAD, Marnes-la-Coquette; KGF (Keratinocyte Growth Factor) (positive control) was obtained from SIGMA, L′Isle d'Abeau Chesnes.
Human keratinocytes were seeded in DMEM standard medium for 2 days at 37° C., CO2=5%. Then, N-Acetyl-Pro-Pro-Tyr-Leu (Seq. ID No. 375) or positive control KGF are introduced and after 5 days of incubation at 37° C., CO2=5%, the synthesis of syndecan-1 was evaluated on glass slides by immunocytochemistry. Quantification of the staining was carried out by image analysis.
The results are shown in table 3 as the mean of the sum±SEM of the product of number of pixels by green detected values (arbitrary unit).

## Arg-Arg-Arg-Pro-Arg (RRRPR; peptide derived from cathelicidin PR-39) [Example 2, R1=H, R2=OH]
Human keratinocytes; 0.001 % (w/v) peptide
  DNA after culture for 4-5 days: 119 +/− 6%
Human keratinocytes; 0.003 % (w/v) peptide
  DNA after culture for 4-5 days: 126 +/− 8%
Human keratinocytes
  growth of human keratinocytes (result in words): stimulate the growth of human keratinocytes

## Arg-Pro-Pro-Tyr-Leu (RPPYL; peptide derived from cathelicidin PR-39) [Example 3, R1=H, R2=OH]
Human keratinocytes; 0.001 % (w/v) peptide
  DNA after culture for 4-5 days: 97 +/− 1%
Human keratinocytes; 0.003 % (w/v) peptide
  DNA after culture for 4-5 days: 118 +/− 10%
Human keratinocytes
  growth of human keratinocytes (result in words): stimulate the growth of human keratinocytes

## N-Acetyl-Pro-Pro-Tyr-Leu (Ac-PPYL) [[AA] is Pro-Pro-Tyr-Leu, R1 is Acetyl, and R2 is OH]
syndecan-1
  syndecan-1 expression / synthesis in human keratinocytes (result in words): stimulates the synthesis of syndecan-1

## N-Palmitoyl-Pro-Pro-Tyr-Leu (Palmitoyl-PPYL) [Example 7, [AA] is Pro-Pro-Tyr-Leu, R1 is Palmitoyl and R2 is OH]
Human keratinocytes; 0.00005 % (w/v) peptide
  DNA after culture for 3 days: 136 +/− 13%
Human keratinocytes; 0.00015 % (w/v) peptide
  DNA after culture for 3 days: 135 +/− 8%

## Pro-Pro-Tyr-Leu (PPYL; peptide derived from cathelicidin PR-39) [Example 4, R1=H, R2=OH]
Human keratinocytes; 0.001 % (w/v) peptide
  DNA after culture for 4-5 days: 150 +/− 26%
Human keratinocytes; 0.003 % (w/v) peptide
  DNA after culture for 4-5 days: 166 +/− 7%
Human keratinocytes
  growth of human keratinocytes (result in words): stimulate the growth of human keratinocytes

## Pro-Tyr-Leu-Pro-Arg (PYLPR; peptide derived from cathelicidin PR-39) [Example 5, R1=H, R2=OH]
Human keratinocytes; 0.001 % (w/v) peptide
  DNA after culture for 4-5 days: 118 +/− 3%
Human keratinocytes; 0.003 % (w/v) peptide
  DNA after culture for 4-5 days: 112 +/− 5%
Human keratinocytes
  growth of human keratinocytes (result in words): stimulate the growth of human keratinocytes

## RRRPRPPYLPRPRPP [Example 1]
Human keratinocytes; 0.001 % (w/v) peptide
  DNA after culture for 4-5 days: 124 +/− 15%
Human keratinocytes; 0.003 % (w/v) peptide
  DNA after culture for 4-5 days: 131 +/− 11%
Human keratinocytes
  growth of human keratinocytes (result in words): stimulate the growth of human keratinocytes

## Tyr-Leu-Pro-Arg-Pro [Example 6]
Human keratinocytes; 0.001 % (w/v) peptide
  DNA after culture for 4-5 days: 110 +/− 6%
Human keratinocytes; 0.003 % (w/v) peptide
  DNA after culture for 4-5 days: 146 +/− 24%
Human keratinocytes
  growth of human keratinocytes (result in words): stimulate the growth of human keratinocytes

B1: KGF: KGF (Keratinocyte Growth Factor) (positive control), obtained from SIGMA (protein, UniProt P21781 32-194, looked up)
Fibroblast growth factor 7: CNDMTPEQMATNVNCSSPERHTRSYDYMEGGDIRVRRLFCRTQWYLRIDKRGKVKGTQEMKNNYNIMEIRTVAVGIVAIKGVESEFYLAMNKEGKLYAKKECNEDCNFKELILENHYNTYASAKWTHNGGEMFVALNQKGIPVRGKKTKKEQKTAHFLPMAIT
syndecan-1
  syndecan-1 expression / synthesis in human keratinocytes (result in words): induced an increase of syndecan-1 expression
